According to patent US20160106814A1, “Novel Oral Pharmaceutical Composition for Treatment of Diabetes” (NOVO NORDISK A/S, priority 2013, published 2016):
*1 amine or outer side, *2 acyl side, *3 side chain or, on linkers, in order; H or OH if unused. Bridges are numbered along the chain shown (N, C = ends). Roman numbers before positions name the chains, in order. Side-chain parts run from the residue outwards. The star is where a group is joined. C18 diacid = O=C(O)CCCCCCCCCCCCCCCCC(=O)*; NMe2Phe = CN(C)[C@@H](Cc1ccccc1)C(=O)*; γGlu = O=C(O)[C@H](CCC(=O)[*:2])N[*:1]; AEEA = NCCOCCOCC(=O)O; Me2Gly = CN(C)CC(=O)*

What was measured:
[1] = Insulin peptide degradation by GI extracts in presence of BBI; type: in vitro ADME, Sprague Dawley rats; details: rat; for half-life at 10 µM: male, Sprague Dawley, real gastrointestinal fluid or homogenate
Description: 96 well plates were coated by incubating with 0.4% BSA solution for minimum of 60 min. […] The plates were pre-incubated (before adding GI juice) for 60 min at 37° C. After addition of 30 μl of GI juice, the plates were incubated for 60 min/37° C. on shaker. Samples (40 μl) were taken at 0, 3, 6, 10, 30 and 60 min, stopped with 3 vol. cold 96% EtOH (ethanol) w. 1% HCOOH (formic acid) and centrifuged (4500 rcf for 10 min at 4° C.). The resulting supernatant from the samples were diluted 5 times with the buffer prior to LC-MS analysis. Standard samples (0.1, 0.5, 1.0, 5.0, 10.0 μM) were prepared and treated as the samples. Standard curve was analysed both at the beginning and the end of the sequence. Two replicates of each tested conditions were included. […] The results were plotted against the incubation time. […] GI juice was prepared from male Sprague Dawley rats (200-250 g) by excising approximately 20 cm piece of mid jejunum and rinsing the inside with 2.5 ml 0.9% sodium chloride solution. The sodium chloride solution was collected in a centrifuge tube, pooled from all rats (20) and centrifuged at 4500 rpm./10 min/4° C. The supernatant was aliquoted in tubes and stored at −80° C.

[2] = Transport of GLP-1 peptide across mucus-producing E12 cell monolayers in the presence of sodium caprate and BBI; type: in vitro ADME; details: pH 7.4, apical to basolateral
Description: Buffer was then removed and the experiment initiated. […] Receiver samples (200 μl) were taken every 15 min.
In all samples with GLP-1 peptide and mannitol, the concentration of GLP-1 peptide was determined using a LOCI assay (or LC-MS assay) and scintillation counter, respectively.

Row | half-life at 10 µM ([1]; pH 6.5, Half Life of insulin peptide) [min] | half-life at 10 µM ([1]; pH 6.5, Half Life of insulin peptide in presence of 0.1% BBI) [min] | Half Life (fold increase) [1] [fold] | Compound | Papp A→B ([2]; 100 μM GLP-1 peptide + 13 mM sodium caprate + 0.2% BBI) [×10⁻⁶ cm/s] | Papp A→B ([2]; 100 μM GLP-1 peptide + 13 mM sodium caprate, without BBI) [×10⁻⁶ cm/s]
1 | 1.1 | > 1000 | >910 | I: NMe2Phe-VNQHLCGSHLVEALYLVCGERGFHYTPK([AEEA-AEEA-γGlu-C18 diacid])-OH / II: Me2Gly-IVEQCCTSICSLEQLENYCN-OH (disulfide I:6-II:6, I:18-II:19, II:5-II:10) [Insulin 2, N{A1},N{A1}-dimethyl,N{B1},N{B1}-dimethyl,N{Epsilon-B29}-[2-[2-[2-[[2-[2-[2-[[(4S)-4-carboxy-4-(17-carboxyheptadecanoylamino)butanoyl]amino]ethoxy]ethoxy]acetyl]amino]-ethoxy]ethoxy]acetyl]-[GluA14,HisB25],des-ThrB30-Insulin(human)] | – | –
2 | – | – | – | CC[C@H](C)[C@H](NC(=O)[C@H](Cc1ccccc1)NC(=O)[C@H](CCC(=O)O)NC(=O)[C@H](CCCCNC(=O)COCCOCCNC(=O)COCCOCCNC(=O)CC[C@H](NC(=O)CCCCCCCCCOc1ccc(C(=O)O)cc1)C(=O)O)NC(=O)[C@H](C)NC(=O)[C@H](C)NC(=O)[C@H](CCC(N)=O)NC(=O)CNC(=O)[C@H](CCC(=O)O)NC(=O)[C@H](CC(C)C)NC(=O)[C@H](Cc1ccc(O)cc1)NC(=O)[C@H](CO)NC(=O)[C@H](CO)NC(=O)[C@@H](NC(=O)[C@H](CC(=O)O)NC(=O)[C@H](CO)NC(=O)[C@@H](NC(=O)[C@H](Cc1ccccc1)NC(=O)[C@@H](NC(=O)CNC(=O)[C@H](CCC(=O)O)NC(=O)C(C)(C)NC(=O)[C@@H](N)Cc1c[nH]cn1)[C@@H](C)O)[C@@H](C)O)C(C)C)C(=O)N[C@@H](C)C(=O)N[C@@H](Cc1c[nH]c2ccccc12)C(=O)N[C@@H](CC(C)C)C(=O)N[C@H](C(=O)N[C@@H](CCCNC(=N)N)C(=O)NCC(=O)N[C@@H](CCCNC(=N)N)C(=O)N[C@@H](CCCCNC(=O)COCCOCCNC(=O)COCCOCCNC(=O)CC[C@H](NC(=O)CCCCCCCCCOc1ccc(C(=O)O)cc1)C(=O)O)C(=O)O)C(C)C [GLP-1 peptide 9, N{Epsilon-26}-[2-[2-[2-[[2-[2-[2-[[(4S)-4-carboxy-4-[10-(4-carboxyphenoxy)-decanoylamino]butanoyl]amino]ethoxy]ethoxy]acetyl]amino]ethoxy]ethoxy]acetyl], N{Epsilon-37}-[2-[2-[2-[[2-[2-[2-[[(4S)-4-carboxy-4-[10-(4-carboxyphenoxy)decanoylamino]butanoyl]-amino]ethoxy]ethoxy]acetyl]amino]ethoxy]ethoxy]acetyl]-[Aib8,Arg34, Lys37]-GLP-1-(7-37)-peptide] | 0.379 | 0.272
